48 compounds from patent publication US8809341B2, “2,4-pyrimidinediamine compounds and uses as anti-proliferative agents” (Rigel Pharmaceuticals, Inc., priority 2003, dated 2014) can be followed below.

Assay [1] has as its system A549 cells. As to the kind of experiment: in vitro antiproliferation assay, A549 (lung). It counts as cell-based. As to the method:
(§1) The IC50 values of various compounds against a various different tumor cell lines were determined using standard in vitro antiproliferation assays. The tumor cell lines tested were as follows: A549 (lung); H1299 (lung), ACHN (kidney/p53 wt), CAKI (renal cell carcinoma), NCI-H460 (lung); HCT116 (colon/p53w0; HELA (cervix/p53 wt), HUH7 (liver/p53 wt), HUVEC (primary endothelial), LNCAP (prostate), HT-29 (colon); MCF-7 (breast); MCF-7 (breast/ER positive), MDA MB435S (breast); MDA MB231 (breast/ER negative), DU145 (prostate); BxPC-3 (pancreatic); SKOV-3 (ovarian); HepG2 (hepatic), NDHF primary normal human dermal fibroblast), SKMEL28 (breast/p53mut), SKMEL5 (breast/p53 wt), U20S (bone) and PC3 (prostate). […] A blank indicates the specified compound was not tested against the specified cell line.

The subject of assay [2] is H1299 cells. As to the kind of experiment: in vitro antiproliferation assay, H1299 (lung). It counts as cell-based. Here is the method: as §1
Where [3] appears, read: in vitro antiproliferation, A549 (lung) cells, Table 4, compounds with no designated stereochemistry tested as racemate.
Where [4] appears, read: in vitro antiproliferation, H1299 (lung) cells, Table 4, compounds with no designated stereochemistry tested as racemate.
[5] abbreviates: IC50 class against A549 (lung) tumor cells.
The mark [6] stands for this setting: IC50 class against H1299 (lung) tumor cells.
Where [7] appears, read: A549 (lung) cells, antiproliferation.

For the compound `O=C1Nc2cc(Nc3nc(Nc4cccc(-c5ncco5)c4)ncc3F)ccc2OC1CCO` (racemic) [compound 237], the IC50 in assay [1] (setting [3]) and in assay [2] (setting [4]) was at most 20 µM throughout. As to `O=C1Nc2cc(Nc3nc(Nc4cccc(-c5cnco5)c4)ncc3F)ccc2OC1CCO` (racemic) [compound 238], the half-maximal inhibitory concentration (IC50) in assay [1] (setting [3]) and in assay [2] (setting [4]) was at most 20 µM each time. Take `COc1cc(Nc2ncc(F)c(Nc3ccc4c(c3)NC(=O)C(C)S4(=O)=O)n2)cc(OC)c1` (racemic) [compound 250]: the IC50 in assay [1] (setting [3]) and in assay [2] (setting [4]) was at most 20 µM in each case.

For the compound `Cc1cc(C)cc(Nc2ncc(F)c(Nc3ccc4c(c3)NC(=O)C(C)S4(=O)=O)n2)c1` (racemic) [compound 251], the IC50 in assay [1] (setting [3]) and in assay [2] (setting [4]) was at most 20 µM each time. In the case of `COc1ccc(Nc2ncc(F)c(Nc3ccc4c(c3)NC(=O)C(C)S4)n2)cc1F` (racemic) [compound 288], the IC50 in assay [1] (setting [3]) and in assay [2] (setting [4]) was at most 20 µM in each case. For the compound `CNC(=O)COc1cccc(Nc2ncc(F)c(NC3CCC3)n2)c1` [compound 109], the IC50 in assay [1] (setting [5]) and in assay [2] (setting [6]) was at most 20 µM in each case. For `CCOC(=O)N1CCN(c2ccc(Nc3ncc(F)c(N(C)C4CCC4)n3)cc2)CC1` [compound 126], the IC50 in assay [1] (setting [5]) and in assay [2] (setting [6]) was at most 20 µM throughout. For `CN(c1nc(Nc2cccc(N3CCOCC3)c2)ncc1F)C1CCC1` [compound 127], the IC50 in assay [1] (setting [5]) and in assay [2] (setting [6]) was at most 20 µM throughout. Turning to `CC(=O)N1CCN(c2cccc(Nc3ncc(F)c(N(C)C4CCC4)n3)c2)CC1` [compound 128], the concentration for half-maximal inhibition (IC50) in assay [1] (setting [5]) and in assay [2] (setting [6]) was at most 20 µM each time. For the compound `CN1CCN(c2cccc(Nc3ncc(F)c(N(C)C4CCC4)n3)c2)CC1` [compound 129], the half-maximal inhibitory concentration (IC50) in assay [1] (setting [5]) and in assay [2] (setting [6]) was at most 20 µM throughout.

On to `CCOC(=O)N1CCN(c2cccc(Nc3ncc(F)c(N(C)C4CCC4)n3)c2)CC1` [compound 130], for which the concentration for half-maximal inhibition (IC50) in assay [1] (setting [5]) and in assay [2] (setting [6]) was at most 20 µM each time. For `O=C(Nc1ccc(Nc2ncc(F)c(NC3CCC3)n2)cc1)c1ccccc1` [compound 131], the IC50 in assay [1] (setting [5]) and in assay [2] (setting [6]) was at most 20 µM throughout.

On to `Fc1cnc(Nc2ccc(N3CCOCC3)cc2)nc1NC1CCC1` [compound 132], for which the IC50 in assay [1] (setting [5]) and in assay [2] (setting [6]) was at most 20 µM throughout. `CC(=O)N1CCN(c2ccc(Nc3ncc(F)c(NC4CCCC4)n3)cc2)CC1` [compound 133]: the half-inhibitory concentration (IC50) in assay [1] (setting [5]) and in assay [2] (setting [6]) was at most 20 µM throughout.

In the case of `CN1CCN(c2ccc(Nc3ncc(F)c(NC4CCCC4)n3)cc2)CC1` [compound 134], the IC50 in assay [1] (setting [5]) and in assay [2] (setting [6]) was at most 20 µM throughout. Take `Fc1cnc(Nc2cccc(N3CCOCC3)c2)nc1NC1CCCC1` [compound 135]: the IC50 in assay [1] (setting [5]) and in assay [2] (setting [6]) was at most 20 µM each time. For the compound `CC(=O)N1CCN(c2cccc(Nc3ncc(F)c(NC4CCCC4)n3)c2)CC1` [compound 136], the IC50 in assay [1] (setting [5]) and in assay [2] (setting [6]) was at most 20 µM each time. Take `CN1CCN(c2cccc(Nc3ncc(F)c(NC4CCCC4)n3)c2)CC1` [compound 137]: the IC50 in assay [1] (setting [5]) and in assay [2] (setting [6]) was at most 20 µM in each case.

Regarding `CC(=O)N(C)c1ccc(Nc2ncc(F)c(NC3CCCCC3)n2)cc1` [compound 150], the 50% inhibitory concentration (IC50) in assay [1] (setting [5]) and in assay [2] (setting [6]) was at most 20 µM each time. As to `CN1CCN(c2ccc(Nc3ncc(F)c(NC4CCCCC4)n3)cc2Cl)CC1` [compound 153], the half-inhibitory concentration (IC50) in assay [1] (setting [5]) and in assay [2] (setting [6]) was at most 20 µM throughout. As for `CC(=O)N1CCN(c2ccc(Nc3ncc(F)c(NC4CCC4)n3)cc2)CC1` [compound 154], the IC50 in assay [1] (setting [5]) and in assay [2] (setting [6]) was at most 20 µM each time. Regarding `CN1CCN(c2ccc(Nc3ncc(F)c(NC4CCCCC4)n3)cc2)CC1` [compound 155], the IC50 in assay [1] (setting [5]) and in assay [2] (setting [6]) was at most 20 µM each time. `Cc1cc(Nc2ncc(F)c(NC3CCC3)n2)ccc1N1CCN(C)CC1` [compound 166]: the IC50 in assay [1] (setting [5]) and in assay [2] (setting [6]) was at most 20 µM throughout. For `CCN1CCN(c2ccc(Nc3ncc(F)c(NC4CCC4)n3)cn2)CC1` [compound 167], the IC50 in assay [1] (setting [5]) and in assay [2] (setting [6]) was at most 20 µM each time. Regarding `Cc1cc(C)cc(Nc2ncc(F)c(Nc3ccc4c(c3)NC(=O)C(C)O4)n2)c1` (stereo not drawn) [compound 230], in assay [2] (setting [4]), the IC50 (usually the point on the concentration scale where inhibition reaches its midpoint) was at most 20 µM. In the case of `COc1cc(Nc2ncc(F)c(Nc3cc(OC)cc(OC)c3)n2)cc(OC)c1` [compound 840], the IC50 in assay [2] (H1299 (lung) cells, in vitro antiproliferation) was at most 20 µM.

`Oc1c(Cl)cc(Nc2ncc(F)c(Nc3cc(Cl)c(O)c(Cl)c3)n2)cc1Cl` [compound 941] registered an IC50 in assay [1] (setting [7]) above 20 µM.

The compound `Cc1cc(Nc2ncc(F)c(Nc3cccc(O)c3)n2)cc(Cl)c1O` [compound 943] came in with an IC50 in assay [1] (setting [7]) of at most 20 µM. In assay [1] (setting [7]), `CC(C)(C)c1cccc(Nc2ncc(F)c(Nc3cccc(O)c3)n2)c1` [compound 951] registered a 50% inhibitory concentration (IC50) above 20 µM. The same measure, in the same setting: the result for `COc1ccc(Nc2nc(Nc3cccc(C(C)(C)C)c3)ncc2F)cc1OC` [compound 953] reads above 20 µM; that for `CCOc1cccc(Nc2ncc(F)c(Nc3cccc(C(C)C)c3)n2)c1` [compound 964], above 20 µM. The same measure, in the same setting: next, `CNC(=O)COc1cccc(Nc2ncc(F)c(Nc3cccc(C(C)C)c3)n2)c1` [compound 965]: above 20 µM. In turn, `CC(C)c1cccc(Nc2nc(Nc3cccc(OCCO)c3)ncc2F)c1` [compound 966] came in with a half-maximal inhibitory concentration (IC50) in assay [1] (setting [7]) of at most 20 µM. In assay [1] (setting [7]), `OCCOc1cccc(Nc2ncc(F)c(Nc3ccc(CO)c(CO)c3)n2)c1` [compound 967] registered a half-inhibitory concentration (IC50) above 20 µM. On the same count and under the same terms, the result for `NC(=O)COc1ccc(Nc2ncc(F)c(Nc3ccc(OCC(N)=O)cc3)n2)cc1` [compound 971] reads above 20 µM; that for `COC(=O)COc1ccc(Nc2nc(Nc3ccc(OCC(N)=O)cc3)ncc2F)cc1` [compound 973], above 20 µM; that for `COC(=O)COc1cccc(Nc2ncc(F)c(Nc3cccc(O)c3)n2)c1` [compound 976], above 20 µM. Same read-out and setting: next, `COC(=O)COc1cccc(Nc2ncc(F)c(Nc3ccc(OC(C)C)cc3)n2)c1` [compound 977]: above 20 µM; `Oc1ccc(Nc2ncc(F)c(Nc3ccc(O)c(C(F)(F)F)c3)n2)cc1C(F)(F)F` [compound 996]: below 20 µM; `Cc1cccc(Nc2ncc(F)c(Nc3cccc(C)c3)n2)c1` [compound 997]: at most 20 µM.

As for `Cc1ccc(Nc2ncc(F)c(Nc3ccc(C)cc3)n2)cc1` [compound 998], the IC50 in assay [1] (setting [7]) was above 20 µM. The same measure, in the same setting: the result for `CNC(=O)COc1cccc(Nc2ncc(F)c(Nc3ccc(OCCC(=O)OC)cc3)n2)c1` [compound 1002] reads above 20 µM; that for `CCOC(=O)CCOc1ccc(Nc2nc(Nc3cccc(OCC(=O)NC)c3)ncc2F)cc1` [compound 1003], above 20 µM. On the same count and under the same terms, the result for `CNC(=O)COc1cccc(Nc2ncc(F)c(Nc3ccc(O)cc3)n2)c1` [compound 1004] reads above 20 µM. Take `C=CCNc1ncc(F)c(Nc2ccc3c(c2)OCCO3)n1` [compound 1037]: in assay [1] (setting [5]), the IC50 was above 20 µM. On the same count and under the same terms, the result for `COc1ccc(Nc2ncc(F)c(Nc3ccc4c(c3)OCCO4)n2)c(OC)c1` [compound 1045] reads above 20 µM. `CC(C)(CC1CCC1)n1ncc2ccc(Nc3ncc(F)c(Nc4ccc(Cl)c(Cl)c4)n3)cc21` [compound 1103]: the IC50 in assay [2] (H1299 (lung) cells) is above 20 µM. Turning to `Cn1nc(-c2ccccc2)cc1Nc1nc(Nc2cccc(-c3ncco3)c2)ncc1F` [compound 1161], in assay [1] (Homo sapiens, A549 (lung) cells), the half-maximal inhibitory concentration (IC50) was at most 20 µM.
